Experimental data as given in patent US20230184743A1, “SCREENING METHODS TO IDENTIFY SMALL MOLECULE COMPOUNDS THAT PROMOTE OR INHIBIT THE GROWTH OF CIRCULATING TUMOR CELLS, AND USES THEREOF” (University of Southern California, priority 2020, published 2023).
Entries after “also recorded” stand apart in the source; their conditions may differ.

What was measured:
Type in all cases: cell-based, human
single BRx68 cells = experiment: Single CTC proliferation over 24 days (AUC), BRx68 line; conditions: two batches, 200 μM-300 μM NAC, 24 days
Description: (§1) Cell culture. CTC lines were previously derived from metastatic breast cancer patients. CTC lines were cultured in ultra-low attachment plates with RPMI 1640 medium, supplemented with EGF (20 ng/mL), bFGF (20 ng/mL), 1×B27 and 1× antibiotic/antimycotic, in 4% 02 and 5% CO2. Single CTCs were cultured in GravityTRAP™ ULA 96 well Plates (PerkinElmer). Wells on the edges of the plates were not used to avoid influence from evaporation. Media with fresh compounds were exchanged every 3 days by inserting pipet tips onto the platform of the wells to prevent accidentally aspirating suspended CTCs at the bottom. CTC numbers were counted manually under an inverted microscope every 6 days.
FACS sorting. […]
(§2) Statistical analysis. […] AUC was calculated for each well in each batch, by plotting days in the x-axis and the corresponding number of cells in the y-axis, then drawing a line to connect the number of cells from the starting count day to the next count day until the end day, and finally calculating the area under this line as the sum of areas of trapezoids. […] Statistical tests were performed using R. For absolute number of cells quantification, total number of cells at end of experiment in each well in each batch was compared between treated cells and untreated control and significance was analyzed with Student t test. […]

[1] = system: CTC lines (BRx42, BRx50 and BRx68) spiked into healthy donors' blood; experiment: Spike-in experiment: growth of CTCs isolated from spiked healthy donors' blood; conditions: RosetteSep isolated, cultured 20 days
Description: Spike-in experiment. Healthy volunteers' blood samples were collected. GFP-positive CTC lines (50 cells/mL) were spiked into the blood samples from healthy volunteers, and RosetteSep™ CTC Enrichment Cocktail Containing […] was used to enrich CTCs from spiked-in samples. Isolated CTCs were cultured in GravityTRAP™ ULA Plate 96 wells. Each patient CTC cell line was processed by 2 different researchers.
Validation on spiked-in CTCs. To mimic the CTC isolation procedure, spiked-in experiments were performed with 3 CTC lines (BRx42, BRx50 and BRx68) into healthy donors' blood. The RosettSep CTC isolation method was used to isolate the spiked CTCs, and separated isolated CTCs equally into wells with control media or with NAC or NAC plus P1C2. […] This confirmed the effects of these compounds on expanding CTCs that have been processed through an isolation procedure. NAC single cell clones form tumors with similar kinetics as controls. It was noticed that the most critical phase is the initial expansion from single CTCs. […] Therefore, treatment of these compounds was stopped at 24 days, and then prolonged the culture to generate several single cell clones. To evaluate the tumorigenicity of the single cell clones, GFP-Luciferase tagged BRx68 single clones generated with NAC treatment or control clones were injected into the mammary fat pats of female NSG mice.

[2] = system: single CTCs from 4 patient-derived CTC lines (BRx07, BRx42, BRx50, and BRx68); experiment: Validation of candidate compounds: single CTC proliferation over 24 days (AUC)
Description: as §1
FACS sorting. Cells were pelleted and resuspended into single cell suspension in 1% BSA in PBS buffer with 7-AAD. Live single CTCs were sorted directly into 96-well GravityTRAP™ ULA Plates using a MoFlo cell sorter (Beckman Coulter). An inverted microscope was used to manually confirm that there was 1 CTC per well, 1 hour after sorting.
Compounds screening. Compounds were from the StemSelect library obtained from the Choi Family Therapeutic Screening Facility at the Eli and Edythe Broad CIRM Center for Regenerative Medicine and Stem Cell Research at USC. Each compound was given a code to ensure unbiased assessment and blinded to the investigators. Compound information is listed in Appendix, at Table 1 of US Provisional Application No. U.S. 62/990,445, incorporated herein by reference). In the first-round screening, compounds were used with […] concentration. Stocks of compounds (10 mM concentration in DMSO) were stored in aliquots at −80° C. All compounds were thawed and refrozen for a maximum of 2 times. In the second-round validation, fresh compounds were dissolved in DMSO (Millipore sigma), and aliquots were stored at −20° C. and used only once without refreezing. Only wells started from single cells on day 0 after sorting were used in the screening experiment. Data collection was done in batches.
as §2, with “test. For other experiments, data were analyzed with Student t test, and represent the means±SEM of at least triplicate samples or averages ±SD of independent analyses, as indicated.” for “test.”

[3] = system: Glutathione (GSH) in BRx68 cells; experiment: Glutathione measurement; conditions: 300 μmol/L NAC
Description: Glutathione measurement. A total of 1×10^6 BRx68 cells were cultured with or without 300 μmol/L NAC for 6 or 13 days. At the end of incubation periods, cells were washed in ice cold PBS, lysed in 5% 5-sulfo-salicylic acid dehydrate by vortexing and repeating cycles of freeze-thaw, then centrifuged at 14,000 rpm for 10 minutes and supernatant was transferred to clean tubes. Glutathione (GSH) was measured using a GSH Colorimetric Detection Kit (Invitrogen) following the manufacturer's instructions.

**Q.** With `CC(=O)N[C@@H](CS)C(=O)O` [NAC, N-acetyl-L-cysteine] as the compound, how does the “single CTC proliferation at various NAC concentrations” value (single BRx68 cells) read?
**A.** most significant effect in promoting single CTC proliferation

**Q.** And the “growth of isolated CTCs compared to the control condition” value [1]?
**A.** promote growth of small numbers of CTCs; also recorded: significantly increased

**Q.** And the “additional growth advantages from treatment once a single cell colony reaches a critical size” value ([2]; after initial expansion from single CTCs)?
**A.** does not seem to confer additional growth advantages

**Q.** And the “single CTC expansion compared to controls” value ([2]; all 4 CTC lines, NAC 300 μM, P1C2 1 μM or 0.5 μM, 24 days)?
**A.** promote growth of single CTCs; also recorded: statistically significant improvement

**Q.** What about the “total GSH level in NAC treated cells vs untreated control cells” value ([3]; day 6) of the same compound?
**A.** 44.42±5.165

**Q.** And the “total GSH level in NAC treated cells vs untreated control cells” value ([3]; day 13)?
**A.** not at day 13
